Assay results reported in US9840475B2, “N-(substituted)-5-fluoro-4-imino-3-methyl-2-oxo-3,4-dihydropyrimidine-1(2H)-carboxamide derivatives” (Adama Makhteshim Ltd., priority 2012, dated 2017).
Where two headings read alike, the source gives them in different places.

Assays:
[1] = system: Mycosphaerella graminicola; anamorph: Septoria tritici; Bayer code SEPTTR; assay: Evaluation of fungicidal activity: leaf blotch of wheat (SEPTTR), disease control on wheat plants; format: in vivo; conditions: Zymoseptoria tritici
Method: Evaluation of Fungicidal Activity: Leaf Blotch of Wheat (Mycosphaerella graminicola; anamorph: Septoria tritici; Bayer code […]) Wheat plants (variety Yuma) were grown from seed in a greenhouse in 50% mineral soil/50% soil-less Metro mix until the first leaf was fully emerged, with 7-10 seedlings per pot. These plants were inoculated with an aqueous spore suspension of Septoria tritici either prior to or after fungicide treatments. After inoculation the plants were kept in 100% relative humidity (one day in a dark dew chamber followed by two to three days in a lighted dew chamber) to permit spores to germinate and infect the leaf. The plants were then transferred to a greenhouse for disease to develop. The following table presents the activity of typical compounds of the present disclosure when evaluated in these experiments. The effectiveness of the test compounds in controlling disease was determined by assessing the severity of disease on treated plants, then converting the severity to percent control based on the level of disease on untreated, inoculated plants.

[2] = 24 h, 100 ppm, one-day protectant, wheat plants (variety Yuma), percent control vs untreated, inoculated plants, read-out: SEPTTR 100 PPM 1DP (One-Day Protectant activity, % disease control rating)
[3] = 72 h, 100 ppm, three-day curative, wheat plants (variety Yuma), percent control vs untreated, inoculated plants, read-out: SEPTTR 100 PPM 3DC (Three-Day Curative activity, % disease control rating)
[4] = 24 h, read-out: SEPTTR 100 PPM 1DP (One-Day Protectant activity, % disease control rating)
[5] = 72 h, read-out: SEPTTR 100 PPM 3DC (Three-Day Curative activity, % disease control rating)

| Compound | melting point | pest or weed control at 100 ppm [1, 2] | pest or weed control at 100 ppm [1, 3] | pest or weed control at 100 ppm [1, 4] | pest or weed control at 100 ppm [1, 5] |
| --- | --- | --- | --- | --- | --- |
| Cn1c(=N)c(F)cn(C(=O)Nc2ccccc2)c1=O | 192.3 to 194.4 °C |  |  |  |  |
| Cc1ccc(NC(=O)n2cc(F)c(=N)n(C)c2=O)cc1 [Compound 1] | 184.7 to 186.2 °C | 51 to 75% | 0 to 25% |  |  |
| Cn1c(=N)c(F)cn(C(=O)Nc2ccc(Cl)cc2)c1=O [Compound 2] | 199 to 200.8 °C |  |  | 26 to 50% | 0 to 25% |
| Cn1c(=N)c(F)cn(C(=O)Nc2cc(F)cc(F)c2)c1=O [Compound 3, N-(3,5-difluorophenyl)-5-fluoro-4-imino-3-methyl-2-oxo-3,4-dihydropyrimidine-1(2H)-carboxamide] | 203 to 204.5 °C | 0 to 25% | 51 to 75% |  |  |
| COc1ccc(NC(=O)n2cc(F)c(=N)n(C)c2=O)cc1 [Compound 4] | 194.8 to 195.4 °C |  |  | 51 to 75% | 26 to 50% |
| Cc1ccc(NC(=S)n2cc(F)c(=N)n(C)c2=O)cc1 [Compound 5] |  |  |  | 76 to 100% | 76 to 100% |
| Cn1c(=N)c(F)cn(C(=S)Nc2ccc(Cl)cc2)c1=O [Compound 6, N-(4-chlorophenyl)-5-fluoro-4-imino-3-methyl-2-oxo-3,4-dihydropyrimidine-1(2H)-carbothioamide] |  | 76 to 100% | 76 to 100% |  |  |
| Cn1c(=N)c(F)cn(C(=O)Nc2ccsc2)c1=O [Compound 7] | 194.2 to 195.2 °C | 51 to 75% | 76 to 100% |  |  |
| Cn1c(=N)c(F)cn(C(=O)Nc2cccs2)c1=O [Compound 8] | 200.3 to 201.8 °C | 51 to 75% | 76 to 100% |  |  |
| COc1ccccc1NC(=O)n1cc(F)c(=N)n(C)c1=O [Compound 9] | 168.9 to 170 °C | 26 to 50% | 76 to 100% |  |  |
| Cc1cccc(NC(=O)n2cc(F)c(=N)n(C)c2=O)c1 [Compound 10] | 188.5 to 192.4 °C | 0 to 25% | 51 to 75% |  |  |
| Cn1c(=N)c(F)cn(C(=O)Nc2ccc(C(F)(F)F)cc2)c1=O [Compound 11] | 192.4 to 195.7 °C | 0 to 25% | 0 to 25% |  |  |
| Cn1c(=N)c(F)cn(C(=O)Nc2cccc(F)c2)c1=O [Compound 12] | 197.5 to 199.4 °C | 51 to 75% | 0 to 25% |  |  |
| Cn1c(=N)c(F)cn(C(=O)Nc2ccc(F)cc2)c1=O [Compound 13] | 194 to 196 °C | 0 to 25% | 26 to 50% |  |  |
| Cn1c(=N)c(F)cn(C(=O)Nc2cc(Cl)cc(Cl)c2)c1=O [Compound 14] | 210 to 213.1 °C |  |  | 0 to 25% | 0 to 25% |
| Cn1c(=N)c(F)cn(C(=O)Nc2cccc(C#N)c2)c1=O [Compound 15] | 204.1 to 205.5 °C | 0 to 25% | 26 to 50% |  |  |
| Cc1ccc(NC(=O)n2cc(F)c(=N)n(C)c2=O)cc1Cl [Compound 16] | 192.9 to 193.5 °C | 76 to 100% | 26 to 50% |  |  |
| COc1ccc(OC)c(NC(=O)n2cc(F)c(=N)n(C)c2=O)c1 [Compound 17] | 168.3 to 169.6 °C | 76 to 100% | 76 to 100% |  |  |
| Cn1c(=N)c(F)cn(C(=O)Nc2ccc(F)cc2Cl)c1=O [Compound 18] | 203.6 to 205.5 °C | 51 to 75% | 0 to 25% |  |  |
| COc1ccc(NC(=O)n2cc(F)c(=N)n(C)c2=O)cc1F [Compound 19] | 194.3 to 196.3 °C | 76 to 100% | 26 to 50% |  |  |
| Cc1cc(NC(=O)n2cc(F)c(=N)n(C)c2=O)c(C)cc1Cl [Compound 20] | 210 to 213 °C | 51 to 75% | 26 to 50% |  |  |
| COc1cccc(NC(=O)n2cc(F)c(=N)n(C)c2=O)c1 [Compound 21] | 195.5 to 196.3 °C | 0 to 25% | 0 to 25% |  |  |
| Cn1c(=N)c(F)cn(C(=S)Nc2cc(Cl)cc(Cl)c2)c1=O [Compound 22] |  | 51 to 75% | 26 to 50% |  |  |
